Patent publication US20230322743A1, “NOVEL […] DERIVATIVES HAVING PRODRUG PROPERTIES” (Compass Pathfinder Limited, priority 2020, published 2023)
Values after ≈ are worked out from the molar mass of the structure shown.

Columns and labels:
Micro shake flask LogD = conditions: for Mean LogD: Octanol:PBS 1:9 at pH 7.4, 10 μM, six replicates
Procedure: 6 replicates of each test compound were incubated at 10 μM in a 1:9 ratio of Octanol:PBS at pH 7.4. Following a two hour incubation at room temperature shaking at 600 rpm, the incubation plate was centrifuged for 15 minutes to separate the layers and then two aliquots were removed from the PBS layer. The first was left neat and the second was diluted 10-fold to give dilute samples. Internal standards were added to both the calibration curve and the PBS incubation samples for analysis on LC MS/MS. […] 5,6-MDAI-tryptophanamide and 3,4-MDA-tryptophanamide were prepared as hemioxalate salts.
LogD was measured as the concentration in the PBS layer against the generated calibration curve relative to the starting concentration of 10 μM. All 6 replicates of the neat samples were averaged to give one value for each, with the same calculation performed for the dilute sample values.
6 replicates of each test compound were incubated at 10 μM in a 1:9 ratio of Octanol:PBS at pH 7.4. Following a two hour incubation at room temperature shaking at 600 rpm, the incubation plate was centrifuged for 15 minutes to separate the layers and then two aliquots were removed from the PBS layer. The first was left neat and the second was diluted 10-fold to give dilute samples.

[1] = test system: behavioural measures of serotonin syndrome; test: Behavioural observations for measures of serotonin syndrome in rats; conditions: rat, PO, 5 mg/kg; scored post-treatment up to 2 hours
[2] = Kinetic turbidimetric solubility assay; conditions: for Solubility: Example 12, 0.01 M phosphate buffered saline pH 7.4, 2% DMSO, room temperature, maximum concentration tested 200 μM, test compounds as hemioxalate salts; for solubility at 5 min: phosphate buffered saline, pH 7.4, aqueous buffer, kinetic from dmso stock
[3] = test system: monoamine neurotransmitter release; test: Microdialysis of nucleus accumbens with HPLC analysis of dopamine, noradrenaline and serotonin; assay type: in vivo, Male Sprague Dawley rats; conditions: rat, PO, 5 mg/kg
locomotor activity = test: Locomotor activity in rats following oral dosing (EthoVision tracking); assay type: in vivo, Male Sprague Dawley rats; conditions: rat, 5 mg/kg
rats = conditions: previously shown, Baumann et al. 2008; cited from earlier work
[4] = Example 13, glycinamides as hemioxalate salts
[5] = Example 12, test compounds as hemioxalate salts

Row | Compound | Mean LogD (Micro shake flask LogD; [4]) | Observations (approximate timecourse), behaviours significantly increased vs vehicle [1] | Solubility [2] [µM] | Mean LogD (Micro shake flask LogD; [5]) | Serotonin levels in nucleus accumbens, compared to the vehicle group ([3]; 2 hour period following dosing) | Magnitude of effect on serotonin levels compared to MDMA ([3]; nucleus accumbens) | solubility at 5 min [2] [µM] | further results
1 | CC(Cc1ccc2c(c1)OCO2)NC(=O)CN (centres unmarked) [3,4-MDA-glycinamide] | 1.08 |  |  |  |  |  |  | LogD compared with that of MDMA (Micro shake flask LogD; Example 13, Octanol:PBS at pH 7.4): slightly greater than that of MDMA
2 | CC(Cc1ccc2c(c1)OCO2)NC(=O)[C@@H](N)Cc1c[nH]c2ccccc12 (some centres unmarked) [3,4-MDA-tryptophanamide] |  | None | >200 | 1.97 | significant increases | smaller in magnitude compared to MDMA |  | Dopamine levels in nucleus accumbens, compared to the vehicle group ([3]; 2 hour period following dosing): significant increases; Noradrenaline levels in nucleus accumbens, compared to the vehicle group ([3]; 2 hour period following dosing): significant increases; Magnitude of effects on dopamine and noradrenaline levels compared to MDMA ([3]; nucleus accumbens): smaller in magnitude compared to MDMA
3 | CC(Cc1ccc2c(c1)OCO2)N(C)C(=O)CN (centres unmarked) [3,4-MDMA-glycinamide] | 0.66 |  |  |  |  |  |  | 
4 | N[C@@H](Cc1c[nH]c2ccccc12)C(=O)NC1Cc2cc3c(cc2C1)OCO3 [5,6-MDAI-tryptophanamide] |  | None | >200 | 2.31 | significant increases | smaller in magnitude compared to MDMA |  | 
5 | CNC(C)Cc1ccc2c(c1)OCO2 (centres unmarked) [MDMA, 3,4-Methylenedioxy-N-methylamphetamine] |  | Flattened posture (~0-40 mins) and hind limb |  |  |  |  | ≥ 200 | Effect on locomotor activity (significant change in total distance travelled vs vehicle) (locomotor activity; 0-60 mins): ↑↑↑ (↑↑↑, p < 0.001); Effect on locomotor activity (significant change in total distance travelled vs vehicle) (locomotor activity; 0-120 mins): ↑↑↑ (↑↑↑, p < 0.001); Effect on locomotor activity (significant change in total distance travelled vs vehicle) (locomotor activity; 60-120 mins): ↑↑↑ (↑↑↑, p < 0.001); Behavioural measures of serotonin syndrome (rats): induce; Locomotion (rats): hyperlocomotion; Monoamine neurotransmitter levels (rats): elevations; logD at 2 h (Micro shake flask LogD; pH 7.4): 0.57
6 | COC(=O)C1=C(C)NC(C)=C(C(=O)OCCN(C)Cc2ccccc2)C1c1cccc([N+](=O)[O-])c1 (centres unmarked) [Nicardipine, reference compound] |  |  |  |  |  |  | 22.1 (≈ 10.6 µg/mL) | 
